From US10017523B2, “NAMPT inhibitors and methods” (Genzyme Corporation, priority 2014, dated 2018)

How the values were obtained:
[1] = test system: chronic myelogenous leukemia (K562); experiment: Anti-proliferative activity on K562 cell line; type: cell-based; settings: Homo sapiens, K562, 72 h, CellTiterGlo
Protocol: (§1) Leukemia/Lymphoma cell lines (ATCC) were diluted in vendor-recommended media and incubated in the absence or presence of inhibitor for 72 hours at 37° C./5% CO2 prior to viability determination using CellTiterGlo (Promega) per manufacturer's instruction. The human cell lines studied include acute T-cell leukemia (JURKAT), chronic myelogenous leukemia (K562), and B-cell acute lymphocytic leukemia (NALM6 and SUP-B15).

[2] = biological target: T1, Recombinant NAMPT enzyme (Homo sapiens, UniProt P43490); experiment: Inhibition of NAMPT enzymatic activity; type: biochemical; settings: 6 hours at 37° C., NMN product detected
T1 construct: purchased MBL
Protocol: Recombinant NAMPT enzyme (MBL) was briefly pre-incubated in the absence or presence of inhibitor followed by addition of nicotinamide. Enzymatic reaction was allowed to proceed for 6 hours at 37° C. Reaction was terminated and NMN reaction product detected using the method as described in: Zhang R Y, Qin Y, Lv X Q, Wang P, Xu T Y, Zhang L, Miao C Y., Anal. Biochem. 2011 May 1; 412(1):18-25.
(§2) The 50% inhibitory concentration (IC50) is the concentration at which 50% of the maximal activity was inhibited.

[3] = test system: primary human T cells; experiment: Anti-proliferative activity on T cells (CD3/CD28 stimulated, CellTiterGlo); type: cell-based; settings: T-cell, 72 h, CD3/CD28 beads
Protocol: (§3) Fresh primary human T cells obtained from Analytical Biological Services (Wilmington, Del.) were diluted to 1×10^^6 cells per ml in AIM-V medium (Invitrogen), and stimulated with CD3/CD28 beads (Invitrogen) in the absence or presence of inhibitor for 72 hours at 37° C./5% CO2 prior to viability determination using CellTiterGlo (Promega) per manufacturer's instruction.
as §2

[4] = test system: primary human B cells; experiment: Anti-proliferative activity on B cells (anti-IgM stimulated, CellTiterGlo); type: cell-based; settings: B-cell, 72 h, anti-IgM 10 ug/ml
Protocol: as §3, with “human B” for “human T”, “with anti-IgM (10 ug/ml) (KPL)” for “with CD3/CD28 beads (Invitrogen)”
as §2

[5] = test system: acute T-cell leukemia (JURKAT); experiment: Anti-proliferative activity on JURKAT cell line; type: cell-based; settings: Homo sapiens, 72 h, CellTiterGlo
Protocol: as §1

[6] = test system: B-cell acute lymphocytic leukemia (NALM6); experiment: Anti-proliferative activity on NALM6 cell line; type: cell-based; settings: Homo sapiens, NALM-6, 72 h, CellTiterGlo
Protocol: as §1

[7] = test system: B-cell acute lymphocytic leukemia (SUP-B15); experiment: Anti-proliferative activity on SUP-B15 cell line; type: cell-based; settings: Homo sapiens, SUP-B15, 72 h, CellTiterGlo
Protocol: as §1

T1 sequence (P43490 whole entry): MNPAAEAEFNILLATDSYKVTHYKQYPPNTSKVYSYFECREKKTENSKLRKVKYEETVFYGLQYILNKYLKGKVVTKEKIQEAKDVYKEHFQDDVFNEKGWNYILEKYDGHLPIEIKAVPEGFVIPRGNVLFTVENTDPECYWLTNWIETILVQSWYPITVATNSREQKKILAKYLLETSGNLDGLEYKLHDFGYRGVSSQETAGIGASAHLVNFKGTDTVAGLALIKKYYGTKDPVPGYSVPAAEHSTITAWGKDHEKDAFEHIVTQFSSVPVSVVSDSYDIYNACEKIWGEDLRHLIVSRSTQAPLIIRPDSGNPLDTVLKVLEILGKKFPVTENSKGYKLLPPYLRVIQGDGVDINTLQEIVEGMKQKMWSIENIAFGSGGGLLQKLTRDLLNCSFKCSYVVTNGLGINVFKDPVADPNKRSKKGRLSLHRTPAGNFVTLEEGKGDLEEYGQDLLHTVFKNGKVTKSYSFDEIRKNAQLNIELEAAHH

SMILES	IC50 [1] [µM]	IC50 [2] [µM]	IC50 [5] [µM]	IC50 [6] [µM]	IC50 [7] [µM]	IC50 [3] [µM]	IC50 [4] [µM]
CCCN1CCC2(CC1)CC(=O)c1cc(-c3ccc(C(=O)NCc4cc(C)no4)cc3)ccc1O2 [N-((3-methylisoxazol-5-yl)methyl)-4-(4-oxo-1′-propylspiro[chroman-2,4′-piperidin]-6-yl)benzamide]	0.025	0.002	0.00778	0.00674	0.00207	0.677	0.0129
CCCCN1CCC2(CC1)CC(=O)c1cc(-c3ccc(C(=O)NCc4cncs4)cn3)ccc1O2 [6-(1′-butyl-4-oxospiro[chroman-2,4′-piperidin]-6-yl)-N-(thiazol-5-ylmethyl)nicotinamide]	0.0198	0.0299	0.00885	0.00573	0.00103	1.88	0.0248
O=C(NCc1cncc(F)c1)c1ccc(-c2ccc3c(n2)C(=O)CC2(CCN(CC4CCC4)CC2)O3)cc1 [4-(1-(cyclobutylmethyl)-4′-oxo-3′,4′-dihydrospiro[piperidine-4,2′-pyrano[3,2-b]pyridin]-6′-yl)-N-((5-fluoropyridin-3-yl)methyl)benzamide]	0.332	0.0664	0.154	0.0489	0.00729	3.99	0.083
CC(C)N1CCC2(CC1)Oc1ccc(-c3ccc(C(=O)NCc4cncs4)cn3)cc1C(=O)N2C [6-(1′-isopropyl-3-methyl-4-oxo-3,4 dihydrospiro[benzo[e][1,3]oxazine-2,4′-piperidin]-6-yl)-N-(thiazol-5-ylmethyl)nicotinamide]	0.0757	0.107	0.033	0.0176	0.00214	1.55	0.0254
CCCN1CCC2(CC1)CC(=O)c1cc(-c3ccc(C(=O)NCc4cncs4)cn3)ccc1O2 [6-(4-oxo-1′-propylspiro[chroman-2,4′-piperidin]-6-yl)-N-(thiazol-5-ylmethyl)nicotinamide]	0.0357	0.0667	0.0163	0.0119	0.00189	1.08	0.0152
CC(C)N1CCC2(CC1)CC(=O)c1cc(-c3ccc(C(=O)NCc4cnn(C)c4)cn3)ccc1O2 [6-(1′-isopropyl-4-oxospiro[chroman-2,4′-piperidin]-6-yl)-N-((1-methyl-1H-pyrazol-4-yl)methyl)nicotinamide]	0.304	0.014	0.209	0.102	0.0141	5.59	0.0598
Cc1cc(CNC(=O)c2ccc(-c3ccc4c(c3)C(=O)CC3(CCN(C(C)C)CC3)O4)cc2)no1 [4-(1′-isopropyl-4-oxospiro[chroman-2,4′-piperidin]-6-yl)-N-((5-methylisoxazol-3-yl)methyl)benzamide]	0.0636	0.001	0.0107	0.00269	0.00117	3.24	0.0113
CC(C)N1CCC2(CC1)Oc1ccc(-c3ccc(C(=O)CCc4cncs4)cc3)cc1C(=O)N2C [1′-isopropyl-3-methyl-6-(4-(3-(thiazol-5-yl)propanoyl)phenyl)spiro[benzo[e][1,3]oxazine-2,4′-piperidin]-4(3H)-one]	0.112	0.166	0.0347	0.0186	0.00285	3.19	0.0408
CC(C)N1CCC2(CC1)Oc1ccc(-c3ccc(C(=O)NCc4cncc(F)c4)cc3)cc1C(=O)N2C [N-((5-fluoropyridin-3-yl)methyl)-4-(1′-isopropyl-3-methyl-4-oxo-3,4-dihydrospiro[benzo[e][1,3]oxazine-2,4′-piperidin]-6-yl)benzamide]	0.0283	0.0035	0.00704	0.00356	0.000606	1	0.006
Cc1cc(CNC(=O)c2ccc(-c3ccc4c(c3)C(=O)NC3(CCN(C(C)C)CC3)O4)nc2)on1 [6-(1′-isopropyl-4-oxo-3,4-dihydrospiro[benzo[e][1,3]oxazine-2,4′-piperidin]-6-yl)-N-((3-methylisoxazol-5-yl)methyl)nicotinamide]	0.876	0.003	0.0248	0.0171	0.00319	14.6	0.0292
CCCCONC(=O)c1ccc(-c2ccc3c(c2)C(=O)CC2(CCN(C(C)C)CC2)O3)nc1 [N-butoxy-6-(1′-isopropyl-4-oxospiro[chroman-2,4′-piperidin]-6-yl)nicotinamide]	0.282	0.0014	0.0233	0.0156	0.00302	7.37	0.045
CCCN1CCC2(CC1)CC(=O)c1cc(-c3ccc(C(=O)NCc4cncc(F)c4)cc3)ccc1O2 [N-((5-fluoropyridin-3-yl)methyl)-4-(4-oxo-1′-propylspiro[chroman-2,4′-piperidin]-6-yl)benzamide]	0.0187	0.003	0.00707	0.00315	0.000556	1.97	0.0074

Further compounds by falling IC50 [1], results first:

IC50 [1] [µM]	IC50 [2] [µM]	IC50 [5] [µM]	IC50 [6] [µM]	IC50 [7] [µM]	SMILES	IC50 [3] [µM]	IC50 [4] [µM]
1.73	0.002	0.0213	0.0107	0.00222	Cc1ccc(CNC(=O)c2ccc(-c3ccc4c(c3)C(=O)CC3(CCN(C(C)C)CC3)O4)c(F)c2)cn1 [3-fluoro-4-(1′-isopropyl-4-oxospiro[chroman-2,4′-piperidin]-6-yl)-N-((6-methylpyridin-3-yl)methyl)benzamide]	8.51	0.0539
0.18	0.271	0.0436	0.0216	0.00515	CCN1CCC2(CC1)CC(=O)c1cc(-c3ccc(C(=O)NCc4cncs4)cn3)ccc1O2 [6-(1′-ethyl-4-oxospiro[chroman-2,4′-piperidin]-6-yl)-N-(thiazol-5-ylmethyl)nicotinamide]	3.35	0.0509
0.0858	0.0564	–	0.0139	0.0017	COCCCN1CCC2(C=Cc3cc(-c4ccc(C(=O)NCc5cncs5)cn4)ccc3O2)CC1 [6-(1′-(3-methoxypropyl)spiro[chromene-2,4′-piperidin]-6-yl)-N-(thiazol-5-ylmethyl)nicotinamide]	5.79	0.0455
0.0447	0.001	0.0122	0.00742	0.0023	CCc1cc(CNC(=O)c2ccc(-c3ccc4c(c3)C(=O)CC3(CCN(C(C)C)CC3)O4)cc2)on1 [N-((3-ethylisoxazol-5-yl)methyl)-4-(1′-isopropyl-4-oxospiro[chroman-2,4′-piperidin]-6-yl)benzamide]	1.72	0.0213
0.0294	0.0042	0.0121	0.00483	0.000847	COCCCCN1CCC2(CC1)CC(=O)c1cc(-c3ccc(C(=O)NCc4cncc(F)c4)cn3)ccc1O2 [N-((5-fluoropyridin-3-yl)methyl)-6-(1′-(4-methoxybutyl)-4-oxospiro[chroman-2,4′-piperidin]-6-yl)nicotinamide]	5.45	0.0109
0.0283	0.002	0.00767	0.00526	0.000663	Cc1ccc(CNC(=O)c2ccc(-c3ccc4c(c3)C(=O)N(C)C3(CCN(C(C)C)CC3)O4)cc2)cn1 [4-(1′-isopropyl-3-methyl-4-oxo-3,4-dihydrospiro[benzo[e][1,3]oxazine-2,4′-piperidin]-6-yl)-N-((6-methylpyridin-3-yl)methyl)benzamide]	4.62	0.0153
0.00294	0.001	0.00366	0.00348	0.00147	CC(C)N1CCC2(CC1)CC(=O)c1cc(-c3ccc(C(=O)NCc4cccnc4F)cc3)ccc1O2 [N-((2-fluoropyridin-3-yl)methyl)-4-(1′-isopropyl-4-oxospiro[chroman-2,4′-piperidin]-6-yl)benzamide]	5.79	0.0099
